{"source": "patent US8628771B2", "about": "“CA IX-specific inhibitors” (Institute of Virology Slovak Academy of Sciences, priority 2002, dated 2014)", "key": {"MDCK-CA IX cells [1]": {"system": "MDCK-CA IX cells", "test": "Extracellular pH (pHe) of sulfonamide-treated MDCK-CA IX cells", "format": "cell-based, canine", "conditions": "48 hours; for effect on extracellular acidification: hypoxia (2% O2); for effect on the normoxic pHe: normoxia", "procedure": "(§1) To maintain the standard conditions, the cells were always plated in 3 ml of culture medium at a density of 0.8-1×10^6 per 6 cm dish 24 hours before the transfer to hypoxia (2% O2 and 5% CO2 balanced with N2) generated in a Napco 7000 incubator. Parallel normoxic dishes were incubated in air with 5% CO2.\n(§2) Compound 6 sulfonamide [4-(2-aminoethyl)-benzenesulfonamide] was from Sigma-Aldrich. […] The sulfonamides were dissolved in PBS with 20% DMSO at 100 mM concentration and diluted in a culture medium to a required final concentration just before their addition to cells. The cells were incubated for 48 hours in hypoxia and normoxia, respectively, the pH of the culture medium was measured and the binding of the FITC-labeled Compound 92 to living cells, washed three times with PBS, was viewed by a Nikon E400 epifluorescence microscope."}, "hCA IX": {"target": "hCA IX (Homo sapiens, UniProt Q16790)", "test": "CA CO2 hydrase activity assay, tumor-associated isozyme hCA IX", "quoted_text": "An SX.18MV-R Applied Photophysics stopped-flow instrument has been used for assaying the CA CO2 hydration activity assays [44]. […] Inhibitor and enzyme solutions were preincubated together for 10 min at room temperature prior to assay, in order to allow for the formation of the E-I complex."}, "[2]": {"conditions": "from reference [58]; cited from earlier work"}, "bCA IV": {"target": "T1, bCA IV (Bos taurus, UniProt Q95323)", "T1 construct": "CA IV was isolated from bovine lung microsomes as described by Maren et al; from tissue; host or cells: bovine lung microsomes", "T1 sequence (Q95323 19-284)": "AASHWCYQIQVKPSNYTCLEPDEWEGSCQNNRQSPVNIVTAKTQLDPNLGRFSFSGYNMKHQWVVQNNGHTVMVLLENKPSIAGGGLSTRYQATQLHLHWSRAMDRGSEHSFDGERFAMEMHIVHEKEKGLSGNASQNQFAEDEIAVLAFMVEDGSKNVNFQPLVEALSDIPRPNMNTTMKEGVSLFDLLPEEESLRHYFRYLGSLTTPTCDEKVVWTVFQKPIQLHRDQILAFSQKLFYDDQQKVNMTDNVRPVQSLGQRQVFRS", "test": "CA esterase activity assay, isozyme bCA IV", "format": "biochemical, bovine"}, "human red cells [3]": {"system": "human red cells", "conditions": "pH 7.4"}, "hCA I": {"target": "T2, hCA I (Homo sapiens, UniProt P00915)", "T2 construct": "made in house; host or cells: Escherichia coli BL21 (DE3)", "T2 sequence (P00915 whole entry)": "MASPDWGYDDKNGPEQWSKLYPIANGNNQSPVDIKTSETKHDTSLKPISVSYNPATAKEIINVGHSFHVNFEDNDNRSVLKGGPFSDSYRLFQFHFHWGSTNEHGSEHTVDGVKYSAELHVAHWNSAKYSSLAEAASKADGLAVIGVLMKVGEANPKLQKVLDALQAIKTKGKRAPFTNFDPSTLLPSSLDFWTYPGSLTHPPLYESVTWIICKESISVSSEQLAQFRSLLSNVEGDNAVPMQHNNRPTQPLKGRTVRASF", "test": "CA esterase activity assay, isozyme hCA I", "format": "biochemical", "conditions": "Table 2; human (cloned) isozymes; read-out: KI hCA I", "quoted_text": "(§3) Human CA I and CA II cDNAs were expressed in Escherichia coli strain BL21 (DE3) from the plasmids pACA/hCA I and pACA/hCA II described by Lindskog's group [54].\n(§4) Non-enzymatic hydrolysis rates were always subtracted from the observed rates. […] Inhibitor and enzyme solutions were preincubated together for 10 min at room temperature prior to assay, in order to allow for the formation of the E-I complex. The inhibition constant KI was determined as described in references [44, 76]."}, "hCA II": {"target": "T3, hCA II (Homo sapiens, UniProt P00918)", "T3 construct": "made in house; host or cells: Escherichia coli BL21 (DE3)", "test": "CA esterase activity assay, isozyme hCA II", "format": "biochemical", "conditions": "Table 2; human (cloned) isozymes; read-out: KI hCA II", "quoted_text": "as §3, §4"}, "HeLa cells [4]": {"system": "HeLa cells", "test": "Binding of FITC-labeled sulfonamide to HeLa cells (fluorescence microscopy)", "format": "cell-based, human", "conditions": "hypoxia versus normoxia, 48 hour incubation"}, "SiHa cells [5]": {"system": "SiHa cells", "test": "Binding of FITC-labeled sulfonamide to SiHa cells (fluorescence microscopy)", "format": "cell-based, human", "conditions": "hypoxia versus normoxia, 48 hour incubation"}, "HeLa cells [6]": {"system": "HeLa cells", "test": "Extracellular pH (pHe) of sulfonamide-treated HeLa cells", "format": "cell-based, human", "conditions": "hypoxic HeLa cells, 1 mM, 48 hours", "procedure": "as §1, §2"}, "SiHa cells [7]": {"system": "SiHa cells", "test": "Extracellular pH (pHe) of sulfonamide-treated SiHa cells", "format": "cell-based, human", "conditions": "hypoxic SiHa cells, 1 mM, 48 hours", "procedure": "as §1, §2"}, "MDCK-CA IX cells [8]": {"system": "MDCK-CA IX cells", "test": "Binding of FITC-labeled sulfonamide to MDCK-CA IX cells (fluorescence microscopy)", "format": "cell-based, canine", "conditions": "48 hours", "procedure": "as §1, §2"}, "human red cells [9]": {"system": "human red cells", "test": "Membrane permeance assay: ex vivo penetration through red blood cells", "conditions": "pH 7.4; for [sulfonamide] in red blood cells, HPLC: HPLC method; for [sulfonamide] in red blood cells, ES: electronic spectroscopic method; for [sulfonamide] in red blood cells, EI: enzymatic method"}}, "note": "Where “and” joins values, the source holds several entries; their conditions need not be identical. Equal entries are not always repeated. Structures can show the parent of a compound that is named as a salt. Where two headings read alike, the source gives them in different places.", "data": [{"compound": "CC(C)c1cc(-c2ccccc2)cc(-c2ccccc2)[n+]1-c1ccc(S(=O)(=O)Nc2nnc(S(N)(=O)=O)s2)cc1", "note": "(as salt: perchlorate) [Compound 83, 1-N-[5-Sulfamoyl-1,3,4-thiadiazol-2-yl-(aminosulfonyl-4-phenyl)]-2-iso-propyl-4,6-diphenylpyridinium perchlorate]", "values": [{"measurement": "melting point", "result": "186 to 188", "unit": "°C"}]}, {"compound": "CCCCc1cc(-c2ccccc2)cc(-c2ccccc2)[n+]1-c1ccc(S(=O)(=O)Nc2nnc(S(N)(=O)=O)s2)cc1", "note": "(as salt: perchlorate) [Compound 84, 1-N-[5-Sulfamoyl-1,3,4-thiadiazol-2-yl-(aminosulfonyl-4-phenyl)]-2-n-butyl-4,6-diphenylpyridinium perchlorate]", "values": [{"measurement": "melting point", "result": "241 to 243", "unit": "°C"}]}, {"compound": "CC(C)(C)c1cc(-c2ccccc2)cc(-c2ccccc2)[n+]1-c1ccc(S(=O)(=O)Nc2nnc(S(N)(=O)=O)s2)cc1", "note": "(as salt: perchlorate) [Compound 85, 1-N-[5-Sulfamoyl-1,3,4-thiadiazol-2-yl-(aminosulfonyl-4-phenyl)]-2-tert-butyl-4,6-diphenylpyridinium perchlorate]", "values": [{"measurement": "melting point", "result": "203 to 205", "unit": "°C"}]}, {"compound": "NS(=O)(=O)c1nnc(NS(=O)(=O)c2ccc(-[n+]3c(-c4ccccc4)cc(-c4ccccc4)cc3-c3ccccc3)cc2)s1", "note": "(as salt: perchlorate) [Compound 87, 1-N-[5-Sulfamoyl-1,3,4-thiadiazol-2-yl-(aminosulfonyl-4-phenyl)]-2,4,6-triphenyl-pyridinium perchlorate]", "values": [{"measurement": "melting point", "result": "> 300", "unit": "°C"}]}, {"compound": "NS(=O)(=O)c1nnc(NS(=O)(=O)c2ccc(-[n+]3c(-c4ccccc4)cccc3-c3ccccc3)cc2)s1", "note": "(as salt: perchlorate) [Compound 88, 1-N-[5-Sulfamoyl-1,3,4-thiadiazol-2-yl-(aminosulfonyl-4-phenyl)]-2,6-diphenylpyridinium perchlorate]", "values": [{"measurement": "melting point", "result": "218 to 220", "unit": "°C"}]}, {"compound": "Cc1cc(C)[n+](-c2ccc(S(=O)(=O)Nc3nnc(S(N)(=O)=O)s3)cc2)c(C)c1C", "note": "(as salt: perchlorate) [Compound 89, 1-N-[5-Sulfamoyl-1,3,4-thiadiazol-2-yl-(aminosulfonyl-4-phenyl)]-2,3,4,6-tetramethylpyridinium perchlorate]", "values": [{"measurement": "melting point", "result": "> 300", "unit": "°C"}]}, {"compound": "NCCc1ccc(S(N)(=O)=O)cc1", "note": "[Compound 6, 4-(2-aminoethyl)-benzenesulfonamide]", "values": [{"measurement": "effect on extracellular acidification", "setting": "MDCK-CA IX cells [1]", "result": "able to reduce the extracellular acidification"}, {"measurement": "effect on the normoxic pHe", "setting": "MDCK-CA IX cells [1]", "result": "negligible"}]}, {"compound": "Nc1ccc(S(=O)(=O)Nc2nnc(S(N)(=O)=O)s2)cc1", "note": "[Compound 15, 5-(4-aminobenzenesulfonylamino)-1,3,4-thiadiazole-2-sulfonamide]", "values": [{"measurement": "Ki", "setting": "hCA IX; KI against CA IX", "result": "14 to 50", "unit": "nM"}, {"measurement": "Ki", "setting": "hCA IX; read-out: KI against CA IX", "result": 38, "unit": "nM"}, {"measurement": "Ki", "setting": "hCA IX; read-out: KI hCA IX", "result": 38, "unit": "nM"}, {"measurement": "pKa for the second sulfonamido group", "setting": "[2]", "result": 3.2}, {"measurement": "Ki", "setting": "bCA IV", "result": "~5", "unit": "nM"}, {"measurement": "Ki", "setting": "bCA IV; read-out: KI bCA IV", "result": "5 nM and 5.1 nM"}, {"measurement": "incubation period to saturation of hCA I and hCA II in erythrocytes with inhibitor", "setting": "human red cells [3]; human, 2 mM", "result": 60, "unit": "min"}, {"measurement": "[sulfonamide] in red blood cells, EI", "setting": "human red cells [3]; human, 30 min, 2 mM", "result": 122, "unit": "µM"}, {"measurement": "[sulfonamide] in red blood cells, ES", "setting": "human red cells [3]; human, 30 min, 2 mM", "result": 127, "unit": "µM"}, {"measurement": "[sulfonamide] in red blood cells, HPLC", "setting": "human red cells [3]; human, 30 min, 2 mM", "result": 125, "unit": "µM"}, {"measurement": "[sulfonamide] in red blood cells, EI", "setting": "human red cells [3]; human, 60 min, 2 mM", "result": 158, "unit": "µM"}, {"measurement": "[sulfonamide] in red blood cells, ES", "setting": "human red cells [3]; human, 60 min, 2 mM", "result": 156, "unit": "µM"}, {"measurement": "[sulfonamide] in red blood cells, HPLC", "setting": "human red cells [3]; human, 60 min, 2 mM", "result": 154, "unit": "µM"}]}, {"compound": "Cc1cc(C)[n+](Cc2ccc(S(N)(=O)=O)cc2)c(C)c1", "note": "[Compound 39]", "values": [{"measurement": "effect on extracellular acidification", "setting": "MDCK-CA IX cells [1]", "result": "able to reduce the extracellular acidification"}, {"measurement": "effect on the normoxic pHe", "setting": "MDCK-CA IX cells [1]", "result": "negligible"}, {"measurement": "Ki", "setting": "hCA IX; read-out: KI hCA IX, Table 2, catalytic domain of the human, cloned isozyme", "result": 38, "unit": "nM"}, {"measurement": "Ki", "setting": "bCA IV; Table 2, from bovine lung microsomes, read-out: KI bCA IV", "result": 92, "unit": "nM"}, {"measurement": "Ki", "setting": "hCA I", "result": 7, "unit": "µM"}, {"measurement": "Ki", "setting": "hCA II", "result": 50, "unit": "nM"}]}, {"compound": "NS(=O)(=O)c1ccc(CNC(=S)Nc2ccc3c(c2)C(=O)OC32c3ccc(O)cc3Oc3cc(O)ccc32)cc1", "note": "[Compound 92]", "values": [{"measurement": "accumulation of FITC-labeled compound in cells", "setting": "HeLa cells [4]", "result": "accumulated in the hypoxic HeLa and SiHa cells"}, {"measurement": "effect on extracellular acidification", "setting": "MDCK-CA IX cells [1]", "result": "able to reduce the extracellular acidification"}, {"measurement": "effect on the normoxic pHe", "setting": "MDCK-CA IX cells [1]", "result": "negligible"}, {"measurement": "accumulation of FITC-labeled compound in cells", "setting": "SiHa cells [5]", "result": "accumulated in the hypoxic HeLa and SiHa cells"}, {"measurement": "effect on acidosis (pHe)", "setting": "HeLa cells [6]", "result": "partially reduced"}, {"measurement": "effect on acidosis (pHe)", "setting": "SiHa cells [7]", "result": "partially reduced"}, {"measurement": "detection of FITC-labeled compound in cells", "setting": "MDCK-CA IX cells [8]; hypoxic MDCK-CA IX cells", "result": "detected only in hypoxic MDCK-CA IX cells"}, {"measurement": "detection of FITC-labeled compound in cells", "setting": "MDCK-CA IX cells [8]; normoxic MDCK-CA IX cells and mock-transfected controls", "result": "absent"}]}, {"compound": "CC(=O)/N=c1/sc(S(N)(=O)=O)nn1C", "note": "[MZA, methazolamide]", "values": [{"measurement": "[sulfonamide] in red blood cells, HPLC", "setting": "human red cells [9]; t = 30 min, 2 mM sulfonamide in 5 mM Tris buffer", "result": 170, "unit": "µM"}, {"measurement": "[sulfonamide] in red blood cells, ES", "setting": "human red cells [9]; t = 30 min, 2 mM sulfonamide", "result": 169, "unit": "µM"}, {"measurement": "[sulfonamide] in red blood cells, EI", "setting": "human red cells [9]; t = 30 min, 2 mM sulfonamide", "result": 165, "unit": "µM"}, {"measurement": "[sulfonamide] in red blood cells, HPLC", "setting": "human red cells [9]; t = 60 min, 2 mM sulfonamide", "result": 168, "unit": "µM"}, {"measurement": "[sulfonamide] in red blood cells, ES", "setting": "human red cells [9]; t = 60 min, 2 mM sulfonamide", "result": 168, "unit": "µM"}, {"measurement": "[sulfonamide] in red blood cells, EI", "setting": "human red cells [9]; t = 60 min, 2 mM sulfonamide", "result": 167, "unit": "µM"}]}, {"compound": "Benzolamide [reference compound]", "values": [{"measurement": "pKa for the second sulfonamido group", "setting": "[2]", "result": 3.2}, {"measurement": "incubation period to saturation of hCA I and hCA II in erythrocytes with inhibitor", "setting": "human red cells [3]", "result": 60, "unit": "min"}]}]}
